Assay results taken from paper PMC6121034 (Frontiers in Cellular Neuroscience, 2018).

Columns and labels:
Format in all cases: cell-based
[1] = molecular target: T1, α1β2γ2 GABAA receptor (α1 subunit), LEU mutant (Rattus norvegicus, UniProt P18508+P62813+P63138, P62813:F91L); assay: whole-cell patch clamp, currents evoked by […] GABA
T1 construct: gene Gabra1; rat α1/β2/γ2L subunits expressed in HEK-293 cells; with GABAA receptor β2 (Gabrb2) and γ2L (Gabrg2) subunits

[2] = molecular target: T2, α1β2γ2 GABAA receptor (α1 subunit), ALA mutant (Rattus norvegicus, UniProt P18508+P62813+P63138, P62813:F91A); assay: whole-cell patch clamp, currents evoked by […] GABA; set-up: dose or concentration left out as unconfirmed
T2 construct: gene Gabra1; rat α1/β2/γ2L subunits expressed in HEK-293 cells; with GABAA receptor β2 (Gabrb2) and γ2L (Gabrg2) subunits
T2 sequence (P62813 28-455 F91A): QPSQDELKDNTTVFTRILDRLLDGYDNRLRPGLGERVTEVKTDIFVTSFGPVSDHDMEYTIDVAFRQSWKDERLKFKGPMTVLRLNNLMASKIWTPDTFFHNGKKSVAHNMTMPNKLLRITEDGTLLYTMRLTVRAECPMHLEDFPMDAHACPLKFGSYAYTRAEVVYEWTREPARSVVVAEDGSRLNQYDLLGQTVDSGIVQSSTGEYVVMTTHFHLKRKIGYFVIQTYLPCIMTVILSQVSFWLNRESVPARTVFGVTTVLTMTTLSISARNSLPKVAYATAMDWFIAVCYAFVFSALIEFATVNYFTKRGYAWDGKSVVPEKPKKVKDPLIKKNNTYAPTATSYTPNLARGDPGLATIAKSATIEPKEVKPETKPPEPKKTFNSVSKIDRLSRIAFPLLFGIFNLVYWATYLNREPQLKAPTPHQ
T2 sequence (P63138 26-474): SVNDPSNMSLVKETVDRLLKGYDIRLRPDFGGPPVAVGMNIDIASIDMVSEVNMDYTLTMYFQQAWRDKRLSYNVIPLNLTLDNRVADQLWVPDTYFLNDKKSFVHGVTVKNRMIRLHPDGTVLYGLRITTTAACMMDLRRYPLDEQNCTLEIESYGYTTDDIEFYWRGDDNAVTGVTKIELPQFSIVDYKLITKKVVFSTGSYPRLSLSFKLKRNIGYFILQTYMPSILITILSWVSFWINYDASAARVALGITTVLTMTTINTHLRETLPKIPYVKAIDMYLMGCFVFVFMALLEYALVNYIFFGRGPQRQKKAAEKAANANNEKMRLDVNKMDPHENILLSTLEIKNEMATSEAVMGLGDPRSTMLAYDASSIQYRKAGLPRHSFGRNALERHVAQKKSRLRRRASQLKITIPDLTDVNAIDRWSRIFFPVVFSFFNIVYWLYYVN
T2 sequence (P18508 39-466): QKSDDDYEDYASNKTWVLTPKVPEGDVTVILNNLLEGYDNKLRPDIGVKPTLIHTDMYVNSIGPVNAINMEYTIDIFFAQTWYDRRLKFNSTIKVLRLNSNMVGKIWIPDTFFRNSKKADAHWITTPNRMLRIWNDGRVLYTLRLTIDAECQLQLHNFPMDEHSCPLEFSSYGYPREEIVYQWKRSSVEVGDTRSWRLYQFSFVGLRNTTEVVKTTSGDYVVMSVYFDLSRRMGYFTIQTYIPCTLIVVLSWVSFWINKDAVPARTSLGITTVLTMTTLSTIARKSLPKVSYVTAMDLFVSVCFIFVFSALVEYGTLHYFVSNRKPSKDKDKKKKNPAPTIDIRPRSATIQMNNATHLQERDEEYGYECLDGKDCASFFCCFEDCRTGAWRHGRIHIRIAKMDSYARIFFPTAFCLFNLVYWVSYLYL

[3] = molecular target: T3, α1β2γ2 GABAA receptor (α1 subunit) (Rattus norvegicus, UniProt P18508+P62813+P63138); assay: whole-cell patch clamp dose-response, partial agonist
T3 construct: gene Gabra1; rat α1/β2/γ2L subunits expressed in HEK-293 cells; with GABAA receptor β2 (Gabrb2) and γ2L (Gabrg2) subunits
T3 sequence (P62813 28-455): as the sequence (P62813 28-455 F91A) above, with A64F counted along it
T3 sequence (P63138 26-474): as the sequence (P63138 26-474) above
T3 sequence (P18508 39-466): as the sequence (P18508 39-466) above

T1 sequence (P62813 28-455 F91L): as the sequence (P62813 28-455 F91A) above, with A64L counted along it
T1 sequence (P63138 26-474): as the sequence (P63138 26-474) above
T1 sequence (P18508 39-466): as the sequence (P18508 39-466) above

NCCCC(=O)O [GABA]
whole-cell patch clamp, currents evoked by 100 mM GABA [1]: Typical traces of current responses to saturating [GABA] application (black traces) | whole-cell patch clamp, currents evoked by GABA [2]: Typical traces of current responses to saturating [GABA] application (black traces)

O=S(=O)(O)C1CCNCC1 [P4S, piperidine-4-sulfonic acid]
EC50 [3]: 46 µM
